Row | Compound | melting point
1 | COC(=O)[C@@H]1COC(=S)N1C(=O)c1ccccc1 | 87.2 to 88 °C
2 | CS(=O)(=O)c1ccc(-c2sc(-c3ccc(Br)s3)nc2-c2ccc(F)cc2)cc1 | 190 to 191 °C
3 | COc1cc2c(cc1N1CCNCC1)OCC2 | 108 to 109 °C
4 | O=C(N[C@H]1CC[C@H](CCN2CCN(c3nccc4c3OCC4)CC2)CC1)C1CCC1 | 186 °C
5 | O=C1Cc2cc3c(cc2C(c2cccc([N+](=O)[O-])c2)=NN1)OCO3 | 251 to 253 °C
6 | O=C1CCCN1C(=O)c1ccc(OCc2ccccc2)cc1 | 115 to 117 °C
7 | O=C(O)/C=C/c1cc([N+](=O)[O-])ccc1O | 265 to 267 °C
8 | Cc1nc(CN2CCN(c3cccc(Br)c3)CC2)cs1 | 82 °C
9 | C[C@H](OC(=O)NCCC(F)(F)C(F)(F)F)C(=O)N[C@@H]1C(=O)N(CCO)c2ccccc2-c2ccccc21 | 181 to 184 °C
10 | N#Cc1nn(-c2c(Cl)cc(C(F)(F)F)cc2Cl)cc1C1C=CCCCC1 (configuration not stated) | 106 to 107 °C
11 | CCOC(=O)c1ncn2c1CN=C(c1ccccc1Cl)c1cc([N+](=O)[O-])ccc1-2 | 250 to 252 °C
12 | Cc1ccc(C(=O)O)c(NC(=O)C(F)(F)F)c1 | 178 to 180 °C
13 | Cn1cc(-c2cnc3c(c2)N(Cc2cc(Cl)ccc2C(F)(F)F)CCN3)cn1 | 156 °C
14 | CCOC(=O)c1ccc(N2C(=O)CCC2CO)c(NC(=NC(=O)OC(C)(C)C)NC(=O)OC(C)(C)C)c1 (configuration not stated) | 104 to 110 °C
15 | C#CC(C)N(C)c1nc2ccc(OC(F)(F)F)cc2s1 (configuration not stated) | 42 to 43 °C
16 | CC(C)(C)c1ccc(CCC(C=O)CC2CCCCC2)cc1NC(=O)CC1c2ccccc2Oc2ccccc21 (configuration not stated) | 117 to 118 °C
17 | CC1(Oc2ccc(N)cc2)C2CC3CC(C2)CC1C3 (configuration not stated) | 95.6 to 97.9 °C
18 | COc1ccc2c(c1)Oc1c(cccc1OCc1ccccc1)C2 | 107 to 108 °C
19 | O=[N+]([O-])c1ccc2[nH]cc(Cn3ccnc3)c2c1 | 230 to 232 °C
20 | CC1(C)CC(=O)C2=C(C1)NC1=C(C(=O)CC(C)(C)C1)C2c1c(F)cc(F)cc1F | > 300 °C
21 | COc1ccc(COC(=O)C2=C3[C@@H](C)[C@H](C)[C@@H]3S[C@@H]3[C@H](NC(=O)Cc4ccccc4)C(=O)N23)cc1 | 172 to 173 °C
22 | COC(=O)C(NC(=O)C(NC(C)=O)(OC)C(Br)Br)=C(C)C (configuration not stated) | 150 to 151 °C
23 | COc1ccc(N2CCCn3c2nc2c(Cl)ccc(C(OC)C(F)(F)F)c23)c(C)n1 (configuration not stated) | 144 to 146 °C
24 | CN(c1nc(-c2cc3ccccc3[nH]c2=O)cs1)S(=O)(=O)c1ccccc1 | 242 to 244 °C
25 | CCC=C1SC(=O)N(CCCCOc2cccn3ccnc23)C1=O | 70 to 71 °C

Row | Compound | melting point
26 | C#Cc1ncn2c1CN(C)C(=O)c1c(Cl)cccc1-2 | 194 to 195 °C
27 | Cc1ccc(S(=O)(=O)Nc2nc(-c3cccc([N+](=O)[O-])c3)cs2)cc1 | 187 to 189 °C
28 | Nc1ccc(-c2nc3ccccc3o2)cc1I | 188 to 191 °C
29 | CC(=O)c1c(-c2ccc(F)cc2)nc2occn12 | 173 °C
30 | CC(C)(C)c1ccc(C#N)cc1[N+](=O)[O-] | 70.5 to 71.5 °C
31 | COc1c(CCC(=O)O)cccc1Oc1ccccc1C | 71 to 75 °C
32 | O=C(O)c1cn(Cc2ccc(OCc3csc(-c4ccccc4)n3)cc2)nc1-c1ccccc1 | 119 to 120 °C
33 | c1ccc(C2CC3(CC(c4ccccc4)N2)OCCO3)cc1 (configuration not stated) | 125 to 127 °C
34 | Cc1cc2cc(CN3CCC(CC(=O)N(C)C)CC3)cnc2cc1NC(=O)c1ccc(-c2ccc(F)cc2)cc1 | 219 °C
35 | Nc1ccc2c(=O)n(Cc3ccccc3)c(=O)n(-c3ccccc3)c2n1 | 261 to 262 °C
36 | CCCCc1oc2ccccc2c1C(=O)NCc1ccc2c(-c3ccc(OC)cc3)c(OC(Cc3ccccc3)C(=O)OC)ccc2c1 (configuration not stated) | 103 to 105 °C
37 | CCc1nccn1CCCNC(=O)c1ccc(Cl)cc1 | 120 to 122 °C
38 | O=C(O)Cc1ccccc1Oc1ccc(C(F)(F)F)cc1NS(=O)(=O)c1cc(C(F)(F)F)cc(C(F)(F)F)c1 | 165 to 166 °C
39 | CCCCN(CC)CC(=O)N1c2ccccc2N(C)C(=O)c2cnc(-c3ccccc3)nc21 | 107 to 109 °C
40 | CC12CCC3C(CC(O)C4CC(=O)CCC43C)C1CCC2O (configuration not stated) | 195 to 205 °C
41 | Cc1cc(C(=O)Nc2ccc(OCC(C)(C)C)c(C#N)c2)n(-c2ccc(F)cc2)n1 | 165 °C
42 | COCCc1nc2c(N)nc3ccccc3c2n1CCOCCN(C)S(=O)(=O)C(C)C | 130 °C
43 | COc1ccc(-c2nc(-c3cccnc3)c(C)n2C)c(OC)c1 | 129 to 131 °C
44 | CC(C)(C)c1cccc(C(=O)Nc2ccccc2C(=O)NCCc2ncc[nH]2)c1 | 205 to 210 °C
45 | c1ccc(OCCn2c(CC3CC3)nc3cnc4cc(-c5ccccc5)ccc4c32)cc1 | 175 to 176 °C
46 | O=S(=O)(NCC1CCN(C[C@H]2COc3ccc4[nH]ccc4c3O2)CC1)c1ccccn1 | 86 to 88 °C
47 | O=C(O)COc1ccc(-c2nc3ncccc3[nH]2)c(O)c1 | 235 °C
48 | Oc1cc2c3ccc(O)c(O)c3n(Cc3c(Cl)cccc3Cl)c2cc1O | 263 to 265 °C
49 | COc1c(OCC(F)(F)F)ccnc1CO | 107 to 108 °C
50 | CC(O)c1ccc(NS(C)(=O)=O)c(Sc2ccc(F)cc2F)c1 (configuration not stated) | 118 to 120 °C

Second part, the molecule after the results:

Row | melting point | Compound
51 | 116 to 117 °C | CC(Cc1ccccc1)(C(=O)O)S(=O)(=O)c1cccs1 (configuration not stated)
52 | 238 to 242 °C | CS(=O)(=O)Nn1c(=O)[nH]c2cc(C(F)(F)F)c(N3CCC(=O)CC3)cc2c1=O
53 | 69 to 70 °C | OCc1ccc(-c2ccccc2)cc1Cl
54 | 178 to 180 °C | O=S1(=O)NCc2ccccc2N1
55 | 248 to 249 °C | N#Cc1ccc(CCC(=O)c2c(O)c3cccnc3n(-c3ccccc3)c2=O)cc1
56 | 62 to 63 °C | N#Cc1cc(Br)cc(-c2ccsc2)c1
57 | 202 °C | O=C(c1cccc(F)c1)N1CCc2cc(S(=O)(=O)N3CC(c4ccccc4)NC3=O)ccc21 (configuration not stated)
58 | 209 to 211 °C | CCc1cc(C(=O)c2ccccc2Cl)c(-n2c(CNC(=O)c3cc4ccccc4[nH]3)nnc2C(C)C)s1
59 | 213 to 214 °C | COc1cc(Nc2c(C#N)cnc3cc(C)sc23)c(Cl)cc1Cl
60 | 121 to 122 °C | CCOC(=O)NCCC(c1cc(F)ccc1F)S(=O)(=O)c1ccc(Cl)cc1 (configuration not stated)
61 | 99 to 100 °C | COC(=O)C(CCBr)Oc1cc([N+](=O)[O-])cc2c1CCCC2 (configuration not stated)
62 | 131 to 134 °C | CCOC(=O)C=Cc1c(C#N)cnn1-c1ccc(Cl)c(Cl)c1Cl
63 | 110 °C | COc1ccc(C2=NO[C@]3(CCOC3)C2)cc1OC1CCCC1
64 | 152 to 153 °C | N#CCc1nc(C(F)(F)F)ccc1C(=O)O
65 | 144 to 146 °C | CCOCCn1cc(C2CCN(CCOc3ccc(C)cc3C(=O)O)CC2)c2cc(OC)ccc21
66 | 178 to 180 °C | O=C(Nc1cn(C2CCCCO2)nc1C(=O)NCCNc1ccccn1)c1ccccn1 (configuration not stated)
67 | 209 to 212 °C | Cn1cc(CO)c(=O)c2cc(F)ccc21
68 | 129 to 131 °C | O=C1c2ccccc2S(=O)(=O)N1CSc1nnc(SCCN2CCOCC2)s1
69 | 148 to 150 °C | CN(C)CCC1=Cc2ccc(NC(=O)c3ccc(-c4ccccc4)cc3)cc2CC1
70 | 154 to 156 °C | CC1CCC(C(C)C)C(C(C#Cc2ccc(Cc3ccc(F)cc3)o2)N(O)C(N)=O)C1 (configuration not stated)
71 | 246 to 247 °C | O=c1ccc(S(=O)(=O)c2cc3cc(Cl)ccc3o2)n[nH]1
72 | 51 to 52 °C | CCOC(=O)CCC(=O)c1ccc2c(c1)CCC2
73 | 92 to 93 °C | [N-]=[N+]=NCC(=O)c1cn2c3c(cccc13)CCC2
74 | 210 to 211 °C | O=c1ccc(S(=O)(=O)c2cc3ccccc3o2)n[nH]1

Row | melting point | Compound
75 | 102 to 103 °C | CC(C)(C)OC(=O)[C@@H]1CCCN1C(=O)C1CCC1SC(=O)c1ccccc1 (some centres not stated)
76 | 148 to 151 °C | CCOC(=O)c1cnc2ccc(OCC)nc2c1Nc1ccc(Oc2ccccn2)cc1
77 | 55 °C | CC1CC=CC2C(=O)OC(=O)C12 (configuration not stated)
78 | 129 to 131 °C | Cc1ccccc1-c1ccc(C(=O)N2Cc3ccc(C(=O)NCCc4ccc(O)cc4)n3Cc3ccccc32)cc1C
79 | 223 to 227 °C | O=C(O)c1cn(C2CC2)c2c(F)c(N3CCN(O)CC3)c(F)cc2c1=O
80 | 135 to 140 °C | O=C1CC(NC(=O)C2CCCN3C(=O)CCC(NC(=O)c4ccc5c(c4)OCO5)C(=O)N23)C(OCc2ccccc2)O1 (configuration not stated)
81 | 32 to 34 °C | CCOC(=O)[C@@H]1C[C@H](Br)CN1C(=O)OC(C)(C)C
82 | 108 to 109 °C | CCOc1ccccc1OCC(O)CNC(C)=CC(=O)c1ccc(C)nc1 (single isomer, unassigned; (-))
83 | 147 to 149 °C | CCc1nn(C2CCCC2)c2cc(C(=O)NCc3ccncc3)ccc12
84 | 246 to 248 °C | Nc1ccc(S(=O)(=O)c2cc(-c3ccccc3F)nc(N3CCCC3)c2)cc1
85 | 31 to 40 °C | c1ccc(CN2CCC3(CC(c4ccccc4)=NO3)C2)cc1 (configuration not stated)
86 | 143 to 145 °C | COc1ccc(N2N=C3c4ccccc4SCCC3CC2=O)cc1 (configuration not stated)
87 | 154 to 155 °C | Cc1ccc2c3c(ccc2n1)OC[C@H](CN1CCN(c2cccc4c2OCCO4)CC1)O3
88 | 194 to 195 °C | Nc1cc(-c2ccoc2)ccc1Nc1cccc(-n2cccc2)c1
89 | 156 to 157 °C | Cc1ccc(C(=O)Nc2ccc(CN(C)C)c(C(F)(F)F)c2)cc1Br
90 | 77 to 78 °C | CCNc1nc(-c2ccc(F)c3ccccc23)cc(C(C)C)n1
91 | 75 to 76 °C | CNc1nc(OC(C)C)ccc1[N+](=O)[O-]
92 | 183 to 185 °C | CCOC(=O)c1cc2c(=O)n(C3CCCC3)c3ccccc3n2c1
93 | 194 to 196 °C | COC(=O)[C@@](C#N)(Cc1ccccn1)[C@H](c1ccccc1OC)c1cccc2ccccc12 (relative stereo)
94 | 123 to 125 °C | CCn1c2ccccc2c2cc(N(Cc3ccccc3)Cc3ccccc3)ccc21
95 | 109 to 111 °C | ICCCCCOc1ccc(C2=C(c3ccccc3)CCCc3cc(OC4CCCCO4)ccc32)cc1 (configuration not stated)
96 | 130 to 132 °C | CCOC(=O)COc1ccc(NC(C)=O)cc1NC(=O)c1ccc(OCCCCc2ccccc2)cc1
97 | 217 to 219 °C | O=C(c1cc2cc3oc(=O)[nH]c3cc2o1)N1CCC(OCc2ccccc2)CC1

— a melting point compilation (Tetko et al.; mined from patent text by program, amines drawn as free bases though some values may be those of a salt)
